Consider three compounds from ChEMBL document CHEMBL3797142, “The self-assembly of a camptothecin-lysine nanotube” (Bioorg Med Chem Lett, 2016).

Data set [1] is described as follows: Induction of non specific self aggregation in pH 7.4 PBS at 250 uM. The class given is physicochemical. Conditions: buffer, pH 7.4, 250 µM; call rule not given here.
Data set [2] is described as follows: Induction of self assembly in pH 7.4 PBS assessed as thickness of nanotube walls at 1 mM after 72 hrs by transmission electron microscopy. The class given is physicochemical. The conditions noted are these: buffer, pH 7.4, 72 h, 1000 µM.
Data set [3] deals with A549. In words: Cytotoxicity against human A549 cells assessed as cell viability after 96 hrs by MTT assay. Type of data set: functional, cell-based. The conditions noted are these: A549, 96 h. (In general: Tetrazolium assays rely on reduction of a dye to a coloured formazan, in cell work by metabolically active cells.)
A short description of data set [4]: Solubility of the compound in water. The class given is physicochemical.
The subject of another data set is NCI-H23. Nature of the data set: Cytotoxicity against human NCI-H23 cells assessed as cell viability after 96 hrs by MTT assay. Conditions: NCI-H23, 96 h. Type of data set: functional, cell-based.
The nature of data set [5]: Induction of self assembly in pH 7.4 PBS assessed as diameter of nanotube at 1 mM after 72 hrs by transmission electron microscopy. Type of data set: physicochemical. Conditions: buffer, pH 7.4, 72 h, 1000 µM.
The next data set has as its system NCI-H460. In words: Cytotoxicity against human NCI-H460 cells assessed as cell viability after 96 hrs by MTT assay. Conditions: NCI-H460, 96 h. The class given is functional, cell-based.
Data set [6] is described as follows: Drug metabolism in pH 7.4 PBS assessed as remaining parent compound level at 1 mM at 37 degC after 3 days by RP-HPLC analysis. The class given is physicochemical. The conditions noted are these: read-out: Stability.
Data set [7] in a line: Induction of J-type self aggregation in pH 7.4 PBS at 250 uM after 3 days by UV-Vis spectrometry. Type of data set: physicochemical. The conditions noted are these: buffer, pH 7.4, 72 h.
A short description of data set [8]: Induction of self assembly in pH 7.4 PBS assessed as beta-sheet interaction within assembly at 20 mM lyophilized for 3 days followed by redissolved in D2O by fourier transform infrared spectroscopic method. The class given is physicochemical. The conditions noted are these: buffer, pH 7.4, 72 h, 20000 µM.
For data set [9], the system named is A549. In words: Drug uptake in human A549 cells at 10 mM after 8 hrs by flow cytometric method. Type of data set: ADME, cell-based. Conditions: a549, 8 h, 10000 µM. Background: A flow cytometer gives signals particle by particle.
The nature of data set [10]: Induction of self assembly in pH 7.4 PBS assessed as diameter of nanotube at 10 mM after 24 hrs by transmission electron microscopy. The conditions noted are these: buffer, pH 7.4, 24 h, 10000 µM. The class given is physicochemical.
Data set [11] is described as follows: Solubility of the compound in pH 7.4 PBS. Type of data set: physicochemical.
Data set [12] can be described thus: Critical aggregation concentration of the compound in pH 7.4 PBS by Nile Red dye based luminescence spectrometric method. Type of data set: ADME. Conditions: buffer.
Data set [13] in a line: Critical aggregation concentration of the compound in water by Nile Red dye based luminescence spectrometric method. The class given is ADME. Conditions: buffer.
Data set [14] in a line: Induction of self assembly in water at pH 7 assessed as diameter of nanotube at 1 mM after 72 hrs by transmission electron microscopy. The conditions noted are these: buffer, pH 7, 72 h, 1000 µM. The class given is physicochemical.
The nature of data set [15]: Induction of self assembly in pH 7.4 PBS assessed as zeta potential of nanotube at 1 mM after 1 day. The class given is physicochemical. Conditions: buffer, pH 7.4, 24 h, 1000 µM.
Data set [16] can be described thus: Drug level in pH 6 PBS treated with camptothecin-lysine at 0.1 mM at 37 degC after 15 hrs by RP-HPLC analysis. The class given is physicochemical. The conditions noted are these: buffer, pH 6, 15 h, 100 µM.
The nature of data set [17]: Drug level in pH 7.4 PBS treated with camptothecin-lysine at 1 mM at 37 degC after 3 days by RP-HPLC analysis. Conditions: buffer, pH 7.4, 72 h, 1000 µM. Type of data set: physicochemical.
Data set [18] has as its system A549. In words: Drug uptake in human A549 cells at 10 mM after 12 to 24 hrs by flow cytometric method. The conditions noted are these: a549, 10000 µM. Type of data set: ADME, cell-based.
Data set [19] can be described thus: Drug level in pH 7.4 PBS treated with camptothecin-lysine nanotube at 37 degC after 1 week by RP-HPLC analysis. Conditions: buffer, pH 7.4, 168 h. The class given is physicochemical.
A short description of data set [20]: Drug level in pH 7.4 PBS treated with camptothecin-lysine at 0.1 mM at 37 degC after 15 hrs by RP-HPLC analysis. The class given is physicochemical. Conditions: buffer, pH 7.4, 15 h, 100 µM.
Data set [21] can be described thus: Drug level in pH 9 borate buffer treated with camptothecin-lysine at 1 mM at 37 degC by RP-HPLC analysis. The class given is physicochemical. Conditions: pH 9, 1000 µM.

Values after ≈ are worked out from the molar mass of the structure shown.

As a reminder, the IC50 is the midpoint of a concentration-inhibition curve. The solubility is the dissolved amount per volume that the medium holds. Low values mean a poorly soluble substance, high ones a readily soluble substance.

`CC[C@@]1(OC(=O)CCC(=O)NCCCC[C@H](N)C(N)=O)C(=O)OCc2c1cc1n(c2=O)Cc2cc3ccccc3nc2-1`: the Activity entry in data set [1] is “Active”; in data set [2], 7.5 nm; in data set [5] it was 70 nm; in [7] it was “Active”; in data set [8] it was “Not Active”; in data set [10], less than 500 nm. Also, the results for the Activity in [14] and in [15] were 40 nm and 19.7 mV, respectively. Moreover, the half-inhibitory concentration (IC50) turned out to be 1120 nM in the data set on A549 [3], 120 nM with NCI-H23 and 430 nM in the data set on NCI-H460. The solubility in data set [4] is 12100 µg/mL (≈ 21 mM); in data set [11], 5140 µg/mL (≈ 8.93 mM). Further, the remaining at 72 h, 1000 µM in [6] worked out at 39%. In addition, the Drug uptake result in the data set on A549 [9] is “Active”. The CAC was 160 µM in [12] and 200 µM in [13].
For `CC[C@@]1(O)C(=O)OCc2c1cc1n(c2=O)Cc2cc3ccccc3nc2-1` [CAMPTOTHECIN], the IC50 in the data set on A549 [3] was found to be 350 nM; with NCI-H23, 70 nM; in the data set with NCI-H460, 190 nM. The compound further yielded a solubility in data set [4] of 3 µg/mL (≈ 0.00861 mM). For the same compound, the Drug metabolism entry in [16], in data set [17], in data set [19] and in [20] was “metabolite_detected” each time. For the same compound, the Drug uptake entry in the data set with A549 [18] and with A549 [9] was “Active” each time.
Turning to `CC[C@@](O)(C(=O)O)c1cc2n(c(=O)c1CO)Cc1cc3ccccc3nc1-2`, the Drug metabolism entry in [17], in data set [21] and in [19] was “metabolite_detected” each time.
